The values that follow come from patent US12345641B2, “Fluorescence quenching immunoassay” (IDEXX Laboratories, Inc., priority 2020, dated 2025).

No end group written: not given here.

Data set [1] in a line: Absorption and emission spectra of fluoresceins and SDMA conjugates (Example 33). It is filed as physicochemical. The following applies: PBS buffer. The text has this: The maximum absorption of fluorescein (Fl) in PBS buffer is at 489 nm and the maximum fluorescence emission is at 515 nm. When the fluorescein molecule is conjugated with an SDMA molecule via a —CH2NH— linker (i.e., to provide SDMA-Fl), its maximum absorption and emission are shifted to 495 nm and 525 nm, respectively. When the fluorescein molecule is substituted by fluorine at the 2′ and 7′ positions (i.e., to provide DFF) there is no any change in the maximum absorption and emission compared to unsubstituted fluorescein. When the fluorescein molecule is substituted by chloride at the 2′ and 7′ positions (i.e., to provide DCF) the maximum absorption and emission are red-shifted to 500 nm and 525 nm, respectively. Also conjugating DFF or DCF to SDMA via a —CH2NH— linker (i.e., to provide SDMA-DFF and SDMA DCF, respectively) results in the maximum absorption and emission being red-shifted. The maximum absorption and emission wavelengths of fluorescein (FL), 2′,7′-difluorofluorescien (DFF), 2′,7′-dichlorofluorescien (DCF), and their conjugates with SDMA via a —CH2NH— linker (i.e., SDMA-Fl (i.e., structure A3), SDMA-DFF, and SDMA-DCF) are listed in the Table provided below. The absorption spectra of DFF, SDMA-DFF, DCF, SDMA-DCF, Fl, and SDMA-FL are depicted in FIG. 25A and the emission spectra of SDMA-DFF, SDMA-DCF, Fl, and SDMA-FL are depicted in FIG. 25B.

Data set [2] deals with anti-T4 antibody. The data set is described as follows: Maximum percentage fluorescence quenching of T2-F, T3-F, T4-F by anti-T4 antibody with and without quencher label (Example 27 table). It is filed as binding. Here is the method:
In another experiment, tracer T2-F, T3-F, or T4-F was dissolved in DMSO to provide a DMSO solution at a tracer concentration of 1 mM. The DMSO solution was then diluted with phosphate buffered saline (“PBS”) to provide a stock solution of each tracer at a concentration of 10 μM. Monoclonal anti-T4-Mab or anti-T4-Mab conjugated to a quencher (Cy3-Ab, IRdyeQC1-Ab, Cy5-Ab, BHQ1-Ab) were serially diluted in PBS to provide solutions having an Anti-T4-Mab or anti-T4-Mab conjugated to quencher at concentration ranging from 0 to 2 μM. In a 96 well black assay plate containing the serially diluted Anti-T4-Mab or anti-T4-Mab conjugated to quencher (95 μL) was added the tracer T2-F, T3-F, or T4-F solution (5 μL), mixed well, and incubated for 30 min and the fluorescence intensities then recorded at an excitation wavelength of 485 nm and an emission wavelength of 520 nm. The results of maximum percentage fluorescence quenching for different tracers and quencher-modified antibodies are provided in the following Table: […]

Data set [3] has as its system Monoclonal anti-NT-proBNP antibody (ADX-15 Mab). The data set is described as follows: Fluorescence quenching of canine NT-proBNP peptide-Fl/DFF conjugates by anti-NT-proBNP Mab and Ab-BHQ10 (Example 52). It is filed as binding. The note with it: for fluorescence quenching reached (up to) by anti-NT-proBNP antibody: unmodified antibody, titration 0 to 800 nM; for Percentage Fluorescence Quenching, DFF Conjugate, Ab-BHQ10 / Percentage Fluorescence Quenching, DFF Conjugate, Ab: NT-proBNP peptide-difluorofluorescein conjugate; for Percentage Fluorescence Quenching, DFF Conjugate, Ab-BHQ10 / Percentage Fluorescence Quenching, F1 Conjugate, Ab-BHQ10: mAb-BHQ10; for Percentage Fluorescence Quenching, DFF Conjugate, Ab-BHQ10 / Percentage Fluorescence Quenching, DFF Conjugate, Ab / Percentage Fluorescence Quenching, F1 Conjugate, Ab-BHQ10: molar ratio of 1:1; for Percentage Fluorescence Quenching, DFF Conjugate, Ab-BHQ10 / Percentage Fluorescence Quenching, DFF Conjugate, Ab / Percentage Fluorescence Quenching, F1 Conjugate, Ab / Percentage Fluorescence Quenching, F1 Conjugate, Ab-BHQ10: No = No Quenching; for Percentage Fluorescence Quenching, F1 Conjugate, Ab / Percentage Fluorescence Quenching, F1 Conjugate, Ab-BHQ10: NT-proBNP peptide-fluorescein conjugate; for Percentage Fluorescence Quenching, F1 Conjugate, Ab: Ab/Conjugate molar ratio of 1:1; for quenching of peptide-Fl or -DFF conjugates upon addition of antibody or antibody-BHQ10: any molar ratio from 1:1 to 8:1; for fluorescence quenching: ratio of 8:1. The method, then:
NT-proBNP peptide-fluorescein (Fl) or -difluorofluorescein (DFF) conjugates were dissolved in DMSO (0.4 mM) and diluted with PBS to provide a stock solution (100 nM). Monoclonal anti-NT-proBNP antibody (ADX-15 Mab, IDEXX Laboratories Inc. of Westbrook, ME) (6.84 mg/ml) was serially diluted in PBS buffer to provide solutions having an antibody concentration ranging from 0 to 800 nM in PBS. In a 96 well black assay plate containing the serially diluted antibody solution (50 μL) was added the P1-Fl or P1-DFF, or other peptide-Fl or Peptide-DFF solution (50 μL), mixed well, incubated for 30 min and the fluorescence intensities recorded (excitation at 485 nm and emission at 520 nm). The results are provided in FIG. 47, FIG. 48, and Table 2.

Data set [4] concerns Monoclonal anti-CysB antibody (7C2). The data set can be described thus: Fluorescence quenching of canine CysB peptide-Fl/DFF conjugates by anti-CysB Mab or Mab-BHQ10 (Example 51). It is filed as binding, mouse. The method, then:
CysB peptide-fluorescein (Fl) or -difluorofluorescein (DFF) conjugates were dissolved in DMSO (0.5 mM) and diluted with Tris Buffer ([…] at pH8.0) to provide a stock solution (100 nM). Monoclonal anti-CysB antibody (7C2, raised against a peptide having the amino acid sequence of SEQ ID NO: 14) (8 mg/ml) was serially diluted in PBS buffer to provide solutions having an Anti-CysB-Mab concentration ranging from 0 to 800 nM in Tris buffer (50 mM at pH 8.0 with 0.5% sarkosyl (sodium lauroyl sarcosinate)). In a 96-well black assay plate containing the serially diluted Anti-CysB-Mab solution (50 μL) was added the peptide-Fl or peptide-DFF solution (50 μL), mixed well, incubated for 30 min and the fluorescence intensities recorded. The results are provided in FIG. 38, 39, 40, and Table 1.

The subject of data set [5] is anti-T4-Mab. The data set can be described thus: Fluorescence of T3 tracers and anti-T4-Mab in the presence of T4 (Example 20). The format is binding. The following applies: PBS, tracer and antibody equimolar. The method, then: Similar solutions were prepared and the fluorescence measured except that the T3-F was replaced with T3-5-F, T3-E-F and T3-FITC.
The test system of data set [6] is anti-CysB Mab. The data set is described as follows: Peptide/full length canine CysB protein dose response in Tris buffer and serum (Example 51). The format is binding, mouse. The method, then: A mixture of CysB P6-Fl or P6-DFF in Tris buffer with 0.1% Tween 20 (200 nM, 25 μL) and anti-Cys-Mab in Tris buffer with 0.1% Tween 20 (400 nM, 25 μL) was incubated at room temperature for 30 min in the wells of a 96 well black assay plate. A series of CysB peptides P6, P7, and P14 standard solutions having peptide concentrations ranging from 0 to 3200 nM (50 μL) were then added to the mixtures of the P6-Fl or P6-DFF and anti-CysB Mab in Tris Buffer. The plate was then incubated for 30 min at room temperature and the fluorescence intensities recorded at an excitation of 485 nm and an emission of 520 nm. The results are shown in FIG. 43, FIG. 44, FIG. 45, and FIG. 46.

On to `O=C1OC2(c3cc(Cl)c(O)cc3Oc3cc(O)c(Cl)cc32)c2ccccc21` [DCF, 2′,7′-dichlorofluorescien], for which, in data set [1], the “Max Absorption” value came out at 500 nm and the “Max Emision” value worked out at 525 nm.

Turning to `O=C(O)c1ccccc1-c1c2ccc(=O)cc-2oc2c(CNC(Cc3cc(I)c(Oc4ccc(O)cc4)c(I)c3)C(=O)O)c(O)ccc12` (stereo not shown) [T2-F], the “Percentage of fluorescence quenching, BHQ1-Ab” value in data set [2] (anti-T4-Mab conjugated to BHQ1) worked out at 11%. Moreover, in data set [2] (anti-T4-Mab conjugated to Cy5), the “Percentage of fluorescence quenching, Cy5-Ab” value is listed as 16%. Besides, the “Percentage of fluorescence quenching, IRdyeQC1-Ab” value in data set [2] (anti-T4-Mab conjugated to IRdyeQC1) is 8%. Besides, the “Percentage of fluorescence quenching, Ab” value in data set [2] (anti-T4-Mab without quencher) is reported as 22%.

Turning to “P1-DFF: NT-proBNP peptide AEQLALEPLHRS conjugated to 5-position of DFF (also: conjugated to 5-position of DFF, peptide site not given here)”, in data set [3], the “fluorescence quenching reached (up to) by anti-NT-proBNP antibody-BHQ10” value is “approximately 65%” and the “fluorescence quenching reached (up to) by anti-NT-proBNP antibody” value is on record as “approximately 70%”.

As for EPLHRS [P3], in data set [3], the “Percentage Fluorescence Quenching, DFF Conjugate, Ab-BHQ10” value is “No”; the “Percentage Fluorescence Quenching, DFF Conjugate, Ab” value was “No”; the “Percentage Fluorescence Quenching, F1 Conjugate, Ab” value was “No”; the “Percentage Fluorescence Quenching, F1 Conjugate, Ab-BHQ10” value was “No”. Besides, the “quenching of peptide-Fl or -DFF conjugates upon addition of antibody or antibody-BHQ10” value in data set [3] is recorded as “no quenching”.

For the molecule `O=C1OC2(c3cc(F)c(O)cc3Oc3cc(O)c(F)cc32)c2ccccc21` [DFF, 2′,7′-difluorofluorescien], in data set [1], the “Max Absorption” value is listed as 489 nm and the “Max Emision” value was 515 nm.

“P5-Fl: CysB peptide GELAYF conjugated to 5-position of fluorescein (also: conjugated to 5-position of fluorescein, peptide site not given here)”: the “quenching of 4′-position conjugate compared with 5-position conjugate” value in data set [4] (anti-CysB mAb) is “higher quenching”.

Turning to `O=C(O)c1ccccc1-c1c2ccc(=O)cc-2oc2cc(O)ccc12` [Fl, fluorescein], in data set [1], the “Max Absorption” value is listed as 489 nm and the “Max Emision” value worked out at 515 nm. In addition, the “Max Absorption” value in data set [1] (listed as FI) stood at 483 nm.

For the molecule AEQLAL [P2], in data set [3], the “Percentage Fluorescence Quenching, DFF Conjugate, Ab-BHQ10” value is reported as “No”; the “Percentage Fluorescence Quenching, DFF Conjugate, Ab” value is on record as “No”; the “Percentage Fluorescence Quenching, F1 Conjugate, Ab” value is “No”; the “Percentage Fluorescence Quenching, F1 Conjugate, Ab-BHQ10” value is recorded as “No”. Besides, the “quenching of peptide-Fl or -DFF conjugates upon addition of antibody or antibody-BHQ10” value in data set [3] is recorded as “no quenching”.

Consider “P7-Fl: CysB peptide GHDELAYF conjugated to 5-position of fluorescein (also: conjugated to 5-position of fluorescein, peptide site not given here)”, for which the “fluorescence quenching relative to P6-Fl” value in data set [4] (anti-CysB-Mab) was “weaker quenching”.

As to “P6-DFF: CysB peptide GDELAYF conjugated to 5-position of DFF (also: conjugated to 5-position of DFF, peptide site not given here)”, in data set [3], the fluorescence quenching entry is on record as “approximately 10%”. In data set [4] (anti-CysB-Mab, molar ratio of about 4:1), the Maximum quenching is recorded as roughly 45%.

With “P1-Fl: NT-proBNP peptide AEQLALEPLHRS conjugated to 5-position of fluorescein (also: conjugated to 5-position of fluorescein, peptide site not given here)”, in data set [3], the “fluorescence quenching reached (up to) by anti-NT-proBNP antibody-BHQ10” value is 40% and the “fluorescence quenching reached (up to) by anti-NT-proBNP antibody” value was 70%.

Regarding `O=C(O)c1ccccc1-c1c2ccc(=O)cc-2oc2c(CNCCNC(Cc3cc(I)c(Oc4ccc(O)c(I)c4)c(I)c3)C(=O)O)c(O)ccc12` (stereo not shown) [T3-E-F, T3-Ethyl-Fluorescein], in data set [5], the “fluorescence quenching by anti-T4-Mab” value is on record as “quenched”.

As to `CNC(=NCCCC(N)C(=O)NCc1c(O)c(Cl)cc2c(-c3ccccc3C(=O)O)c3cc(Cl)c(=O)cc-3oc12)NC` (stereo not shown) [SDMA-DCF], in data set [1], the “Max Absorption” value turned out to be 510 nm and the “Max Emision” value amounted to 535 nm.

Regarding YQTNKAKHDELAYF [P14], the “fluorescence intensity as a function of CysB peptide concentration” value in data set [6] (peptide 0 to 3200 nM added to mixture of antibody and P6-Fl or P6-DFF, Tris buffer) is listed as “a dose response was observed”.

“P6-Fl: CysB peptide GDELAYF conjugated to 5-position of fluorescein (also: conjugated to 5-position of fluorescein, peptide site not given here)”: in data set [4], the “quenching by anti-CysB Mab-BHQ10 relative to un-modified mAb” value is “slightly higher”. For the same molecule, in data set [4] (molar ratio of antibody to P6-Fl of about 8:1, unmodified anti-CysB-Mab), the fluorescence quenching is on record as roughly 30%.

As to `O=C(NC(Cc1cc(I)c(Oc2ccc(O)c(I)c2)c(I)c1)C(=O)O)c1ccc(-c2c3ccc(=O)cc-3oc3cc(O)ccc23)c(C(=O)O)c1` (stereo not shown) [T3-5-F, T3-5-Fluorescein], the “fluorescence quenching by anti-T4-Mab” value in data set [5] was “not quenched”.

Take “NT-proBNP P6-Fl: NT-proBNP peptide LEPLHRS conjugated to 5-position of fluorescein (also: conjugated to 5-position of fluorescein, peptide site not given here)”: the fluorescence quenching entry in data set [3] is listed as “approximately 10%”.

In the case of `O=C(O)c1cc(NC(=S)NC(Cc2cc(I)c(Oc3ccc(O)c(I)c3)c(I)c2)C(=O)O)ccc1-c1c2ccc(=O)cc-2oc2cc(O)ccc12` (stereo not shown) [T3-FITC], the “fluorescence quenching by anti-T4-Mab” value in data set [5] is given as “not quenched”.

B1: CysB full length protein: canine cystatin-B, SEQ ID NO: 1 (protein, listed as Canis familiaris)
chain: MMCGAPSASQPATADTQAIADQVKAQLEERENKKYTTFKAVTFRSQVVAGTPYFIKVQVDDDEFVHLRVFQSLPHENKPLALSSYQTNKAKHDELAYF
As for B1, the “fluorescence intensity as a function of CysB full length protein concentration” value in data set [6] (added to mixture of antibody and tracer in the presence of varying concentrations of sarkosyl) is recorded as “a dose response was observed”. In addition, the “dose response of CysB full length protein in serum” value in data set [6] (antibody or antibody-BHQ10 with P6-Fl or P6-DFF, sarkosyl (1%)) was “dose response was also observed”.
